Data: patent US20240343733A1, “COMPOUNDS FOR TARGETING DEGRADATION OF IRAK4 PROTEINS” (BIOGEN MA INC., priority 2021, published 2024)

Experiments:
IRAK4 [1] = test: Pharmacodynamics (PD) in Male Cynomolgus Monkeys, IRAK4 quantitation in PBMCs by MSD; format: in vivo; conditions: male cynomolgus monkey PBMCs
Protocol: Assay 6. Pharmacodynamics (PD) in Male Cynomolgus Monkeys
For PBMC isolation, approximately 1 mL of blood sample was collected in a BD Vacutainer® EDTA Tubes (Catalog no. 36643, Becton, Dickinson and Co., Franklin Lakes, NJ, USA) with K2-EDTA and stored at room temperature (RT). The blood was diluted 1:1 with PBS at room temperature. The tube contents were mixed gently by pipetting up and down 5 times. The PBS/blood mixture was layered carefully on the top of 2 ml Ficoll® Paque Plus (Catalog no. 17-1440-03, Cytiva, Marlborough, MA, USA) in 15 mL falcon tubes, then centrifuged at RT for 30 minutes at 600 g with acceleration set at 6 and brake set at 0. The middle ‘cloudy’ interface between plasma and Ficoll® Paque Plus containing the PBMCs was transferred to a 15 mL tube and washed once with 10 mL of PBS, then centrifuged for 10 minutes at RT at 250 g. The supernatant was discarded without disturbing the cell pellet. If red blood cells were still present, 1 mL of lysis buffer was added, incubated for 2 minutes at RT, then 10 mL PBS was added to terminate lysis, and then centrifuged for 5 minutes at RT at 250 g. The supernatant was discarded without disturbing the cell pellet and stored at −80° C. until analysis.
For cell counting, the cell suspension was diluted 1:1 with Trypan Blue dye and mixed well. The cell numbers (live and dead) were counted, and cell viability calculated. The cell numbers and cell viability of each PBMC sample were recorded.
For sample preparation for MSD analysis, 2 million cells were subjected to lysis by 100 μL of RIPA lysis and extraction buffer (Catalog no 89900, ThermoScientific, Waltham, MA, USA) with phosphatase and protease inhibitors were added for 30 minutes at 4° C. To prepare RIPA lysis and extraction buffer with phosphatase and protease inhibitors, 1 tablet of cOmplete™, 1 tablet of PhosSTOP™, 100 μL each of Phosphatase Inhibitor Cocktail 2 and 3 (all catalog no. 11836153001, 4906845001, P5726 and P0044 respectively, Sigma Aldrich, St. Louis, MO, USA) were mixed with 10 mL RIPA buffer. The lysed PBMC samples were stored at −80° C. until analysis. Samples were completely thawed before being subjected to MSD analysis. The data was normalized using protein concentration and PBMC cell numbers, separately, for comparison.
For biomarker detection of IRAK4 in samples, MSD® or Meso Scale Discovery® biomarker assays technology was utilized, which is an ELISA-based method.
For the capture or coating step, 100 μL of IRAK4 Monoclonal Antibody (2H9) (Fisher, Catalog no. MA5-15883) was added to 96 well MSD multi-array 96 well plate (MSD Catalog no. L15XA-3, MSD multi-array 96 well plate). The plate was sealed and incubated overnight at 2-8° C. The plate was washed 5×300 μL/well with tris buffered saline wash buffer. 300 μL of blocking Buffer (3% BSA in 0.1% PBST) (Wuxi, Catalog no. BB-20211112-YJC) was added. The plate was sealed and incubated for 2 h±10 minutes at room temperature without shaking. The plate was washed 5×300 μL/well with tris buffered saline wash buffer. 100 μL of standard and samples were added into each well. The plate was sealed and incubated for 1 h 10 minutes at room temperature with shaking at 500 rpm. The plate was washed 5×300 μL/well with tris buffered saline wash buffer. 100 μL of detection solution containing IRAK4 antibody (Catalog no. 4363, Cell Signaling Technology, Danvers, MA, USA) was added into each well. The plate was sealed and incubated for 1 h 10 min at RT with shaking at 500 RPM. The plate was washed 5×300 μL/well with tris buffered saline wash buffer. 100 μL of sulfotag solution containing Sulfo-Tag labeled anti-rabbit antibody (Goat) (Catalog no. R32AB-1, Meso Scale Diagnostics, Rockville, MD, USA) was added into each well. The plate was sealed and incubated for 1 h+10 minutes at room temperature with shaking at 500 RPM. The plate was washed 5×300 […] with tris buffered saline wash buffer. […]

IRAK4 [2] = target: T1, IRAK4 (Homo sapiens, UniProt Q9NWZ3); test: IRAK4 Degradation Assay, HiBiT Method; format: cell-based; conditions: 293T cells expressing HiBiT-tagged IRAK4, 6 hours
T1 construct: 293Tcells expressing HiBiT-tagged IRAK4 were then added into 384-well plates
T1 sequence (Q9NWZ3 1-460): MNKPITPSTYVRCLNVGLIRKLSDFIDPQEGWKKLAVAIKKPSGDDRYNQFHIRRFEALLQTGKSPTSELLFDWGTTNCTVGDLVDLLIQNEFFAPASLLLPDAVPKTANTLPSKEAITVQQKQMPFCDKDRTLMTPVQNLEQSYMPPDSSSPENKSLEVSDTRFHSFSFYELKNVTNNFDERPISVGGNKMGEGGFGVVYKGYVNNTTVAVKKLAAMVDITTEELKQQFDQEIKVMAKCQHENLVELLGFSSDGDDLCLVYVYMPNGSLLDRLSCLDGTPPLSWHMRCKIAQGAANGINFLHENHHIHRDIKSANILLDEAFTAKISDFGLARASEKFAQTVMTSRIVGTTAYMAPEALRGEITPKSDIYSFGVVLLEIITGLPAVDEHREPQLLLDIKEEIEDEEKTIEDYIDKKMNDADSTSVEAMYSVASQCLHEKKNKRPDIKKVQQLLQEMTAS
Summary of the method: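 Luminescent read-out with Nano-Glo HiBiT lytic reagent after 6 h compound exposure at 37 °C. Cells were HiBiT-IRAK4 knock-in 293T (C-terminal tag), 10,000 per well. Compounds ran as 11-point half-log dilutions from […] highest dose, duplicate wells; DMSO served as negative control.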

Row | SMILES | IRAK4 change from vehicle (IRAK4 [1]; time 2 h) | IRAK4 change from vehicle (IRAK4 [1]; time 8 h) | IRAK4 change from vehicle (IRAK4 [1]; time 24 h) | IRAK4 change from vehicle (IRAK4 [1]; time 48 h) | IRAK4 change from vehicle (IRAK4 [1]; time 72 h) | IRAK4 change from vehicle (IRAK4 [1]; time 96 h) | DC50 (IRAK4 [2])
1 | CC(C)Oc1cc2nc([C@H]3CC[C@H](CN4CCC(c5ccc6c(c5)n(C)c(=O)n6C5CCC(=O)NC5=O)CC4)CC3)cn2cc1C(=O)Nc1cccn([C@H]2C[C@H]2F)c1=O (stereo partly drawn) [Compound 169, 2-((1R,4S)-4-((4-(1-(2,6-dioxopiperidin-3-yl)-3-methyl-2-oxo-2,3-dihydro-1H-benzo[d]imidazol-5-yl)piperidin-1-yl)methyl)cyclohexyl)-N-(1-((1S,2R)-2-fluorocyclopropyl)-2-oxo-1,2-dihydropyridin-3-yl)-7-isopropoxyimidazo[1,2-a]pyridine-6-carboxamide] | −62% | −83% | −97% | −97% | −94% | −90% | < 10 nM
2 | CC(C)Oc1cc2nc([C@H]3CC[C@H](CN4CCC(c5ccc6c(c5)n(C)c(=O)n6C5CCC(=O)NC5=O)CC4)CC3)cn2cc1C(=O)Nc1cnn2cccnc12 (some centres unmarked) [Compound 48, 2-[4-[[4-[1-(2,6-dioxo-3-piperidyl)-3-methyl-2-oxo-benzimidazol-5-yl]-1-piperidyl]methyl]cyclohexyl]-7-isopropoxy-N-pyrazolo[1,5-a]pyrimidin-3-yl-imidazo[1,2-a]pyridine-6-carboxamide] | −50% | −87% | −96% | −94% | −94% | −87% | < 10 nM
